From publication PMC7663149, “Discovery of 5-Phenoxy-2-aminopyridine Derivatives as Potent and Selective Irreversible Inhibitors of Bruton’s Tyrosine Kinase” (International Journal of Molecular Sciences, 2020)

Tests used:
Type in all cases: biochemical
ITK = biological target: T1, ITK (Homo sapiens, UniProt Q08881); assay: HotSpot kinase selectivity profiling, ITK
T1 construct: purchased Reaction Biology Corporation (contract assay)
T1 sequence (Q08881 1-620): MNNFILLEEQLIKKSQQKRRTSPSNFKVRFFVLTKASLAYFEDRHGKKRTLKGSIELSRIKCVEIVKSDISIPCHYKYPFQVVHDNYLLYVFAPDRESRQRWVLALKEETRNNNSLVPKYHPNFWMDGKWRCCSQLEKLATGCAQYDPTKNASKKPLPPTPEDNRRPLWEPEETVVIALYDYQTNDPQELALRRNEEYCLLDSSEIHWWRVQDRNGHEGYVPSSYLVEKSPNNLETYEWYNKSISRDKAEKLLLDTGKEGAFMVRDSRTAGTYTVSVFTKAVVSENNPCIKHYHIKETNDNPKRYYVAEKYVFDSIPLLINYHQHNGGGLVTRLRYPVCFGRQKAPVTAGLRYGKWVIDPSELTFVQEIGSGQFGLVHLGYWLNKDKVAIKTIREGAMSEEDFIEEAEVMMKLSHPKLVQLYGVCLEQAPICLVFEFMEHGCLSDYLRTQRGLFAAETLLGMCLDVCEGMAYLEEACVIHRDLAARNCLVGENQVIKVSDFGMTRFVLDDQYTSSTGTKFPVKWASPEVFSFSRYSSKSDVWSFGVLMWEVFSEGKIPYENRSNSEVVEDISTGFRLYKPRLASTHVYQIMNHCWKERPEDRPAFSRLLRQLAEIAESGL

JAK3 = biological target: T2, JAK3 (Homo sapiens, UniProt P52333); assay: HotSpot kinase selectivity profiling, JAK3
T2 construct: purchased Reaction Biology Corporation (contract assay)
T2 sequence (P52333 1-1124): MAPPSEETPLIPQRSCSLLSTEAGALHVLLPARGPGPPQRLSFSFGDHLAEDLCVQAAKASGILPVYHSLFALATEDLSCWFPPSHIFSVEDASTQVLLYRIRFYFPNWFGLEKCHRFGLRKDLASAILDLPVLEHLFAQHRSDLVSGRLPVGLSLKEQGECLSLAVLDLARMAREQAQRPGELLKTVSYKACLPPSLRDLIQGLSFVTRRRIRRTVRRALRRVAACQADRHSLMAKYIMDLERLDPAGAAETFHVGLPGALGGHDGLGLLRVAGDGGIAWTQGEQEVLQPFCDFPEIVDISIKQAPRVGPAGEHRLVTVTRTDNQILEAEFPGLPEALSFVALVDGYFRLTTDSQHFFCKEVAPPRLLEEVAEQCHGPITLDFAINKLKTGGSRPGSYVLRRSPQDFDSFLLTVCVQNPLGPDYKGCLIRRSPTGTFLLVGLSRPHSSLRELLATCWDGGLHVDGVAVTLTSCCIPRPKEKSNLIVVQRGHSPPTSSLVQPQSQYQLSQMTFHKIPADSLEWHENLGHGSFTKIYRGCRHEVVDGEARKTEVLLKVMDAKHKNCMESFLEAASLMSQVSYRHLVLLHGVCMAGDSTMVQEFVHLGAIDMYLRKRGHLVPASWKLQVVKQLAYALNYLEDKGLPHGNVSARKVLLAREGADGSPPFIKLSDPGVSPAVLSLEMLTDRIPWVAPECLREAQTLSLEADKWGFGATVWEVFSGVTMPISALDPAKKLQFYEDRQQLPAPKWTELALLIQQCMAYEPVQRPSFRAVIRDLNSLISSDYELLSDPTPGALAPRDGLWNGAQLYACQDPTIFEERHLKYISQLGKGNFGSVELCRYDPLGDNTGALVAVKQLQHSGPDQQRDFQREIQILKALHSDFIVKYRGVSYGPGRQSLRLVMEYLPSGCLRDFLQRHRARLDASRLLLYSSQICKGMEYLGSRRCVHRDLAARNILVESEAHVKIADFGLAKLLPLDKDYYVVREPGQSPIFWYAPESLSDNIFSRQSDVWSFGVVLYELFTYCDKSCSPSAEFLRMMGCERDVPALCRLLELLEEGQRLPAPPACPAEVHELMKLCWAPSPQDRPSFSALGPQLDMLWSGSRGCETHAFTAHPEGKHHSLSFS

BMX/ETK = biological target: T3, BMX/ETK (Homo sapiens, UniProt P51813); assay: HotSpot kinase selectivity profiling, BMX/ETK
T3 construct: purchased Reaction Biology Corporation (contract assay)
T3 sequence (P51813 1-675): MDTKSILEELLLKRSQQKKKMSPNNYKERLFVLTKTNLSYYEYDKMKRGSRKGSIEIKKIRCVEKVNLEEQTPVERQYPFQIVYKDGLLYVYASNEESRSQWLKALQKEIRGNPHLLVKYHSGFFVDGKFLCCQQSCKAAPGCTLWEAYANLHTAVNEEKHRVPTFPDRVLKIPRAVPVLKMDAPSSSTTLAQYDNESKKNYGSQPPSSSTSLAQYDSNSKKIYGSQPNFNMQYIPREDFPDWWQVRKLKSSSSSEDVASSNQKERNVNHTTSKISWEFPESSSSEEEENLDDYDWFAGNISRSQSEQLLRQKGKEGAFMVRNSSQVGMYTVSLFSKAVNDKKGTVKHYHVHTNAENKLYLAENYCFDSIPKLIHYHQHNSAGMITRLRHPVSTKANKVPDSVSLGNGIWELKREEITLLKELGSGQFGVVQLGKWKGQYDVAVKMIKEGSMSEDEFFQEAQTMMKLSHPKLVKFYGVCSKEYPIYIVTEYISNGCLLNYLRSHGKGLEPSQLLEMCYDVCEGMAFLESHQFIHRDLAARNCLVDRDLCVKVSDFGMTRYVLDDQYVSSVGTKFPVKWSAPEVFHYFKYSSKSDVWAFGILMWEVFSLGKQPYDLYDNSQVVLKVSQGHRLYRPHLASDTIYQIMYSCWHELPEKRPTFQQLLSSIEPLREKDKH

TXK = biological target: T4, TXK (Homo sapiens, UniProt P42681); assay: HotSpot kinase selectivity profiling, TXK
T4 construct: purchased Reaction Biology Corporation (contract assay)
T4 sequence (P42681 1-527): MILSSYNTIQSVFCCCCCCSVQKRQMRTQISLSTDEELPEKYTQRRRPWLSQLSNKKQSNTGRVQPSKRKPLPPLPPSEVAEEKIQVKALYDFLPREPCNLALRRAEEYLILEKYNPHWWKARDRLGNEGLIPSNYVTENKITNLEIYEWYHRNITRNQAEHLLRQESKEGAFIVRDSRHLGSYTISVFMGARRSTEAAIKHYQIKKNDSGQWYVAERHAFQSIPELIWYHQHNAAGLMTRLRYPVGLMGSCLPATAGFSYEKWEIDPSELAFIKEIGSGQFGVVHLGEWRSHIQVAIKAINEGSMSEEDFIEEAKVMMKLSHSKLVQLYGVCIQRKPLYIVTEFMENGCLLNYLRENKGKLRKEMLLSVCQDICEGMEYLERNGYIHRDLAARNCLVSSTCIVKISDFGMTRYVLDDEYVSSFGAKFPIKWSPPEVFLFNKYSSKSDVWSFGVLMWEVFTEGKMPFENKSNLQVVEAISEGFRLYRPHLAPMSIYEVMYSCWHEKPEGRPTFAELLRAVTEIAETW

SMILES	inhibition at 20 µM (ITK) [%]	inhibition at 20 µM (JAK3) [%]	inhibition at 20 µM (BMX/ETK) [%]	inhibition at 20 µM (TXK) [%]
C=CC(=O)Oc1ccccc1Oc1cnc(N)c(N2CCc3cc(OCc4ccccc4)ccc3C2)c1 [Compound 17d, Acrylic Acid 2-[6-Amino-5-(6-benzyloxy-3,4-dihydro-1H-isoquinolin-2-yl)pyridin-3-yloxy]phenyl Ester]	75.1	64.8 ± 0.3	98.7 ± 0.6	88.8 ± 0.1
C=CC(=O)Oc1cccc(Oc2cnc(N)c(N3CCc4cc(OCc5ccc(OC)cc5)ccc4C3)c2)c1 [Compound 18g, Acrylic Acid 3-{6-Amino-5-[6-(4-methoxybenzyloxy)-3,4-dihydro-1H-isoquinolin-2-yl]pyridin-3-yloxy}phenyl Ester]	46 ± 2.3	77.1 ± 3	96 ± 0.1	49.7 ± 2.5
C=CC(=O)Oc1cccc(Oc2cnc(N)c(N3CCc4cc(OCc5ccccc5)ccc4C3)c2)c1 [Compound 18d, Acrylic Acid 3-[6-Amino-5-(6-benzyloxy-3,4-dihydro-1H-isoquinolin-2-yl)pyridin-3-yloxy]phenyl Ester]	52.8 ± 1.8	46.2 ± 4.2	95.5 ± 0.1	37.5 ± 3.3
